Results from patent US11607422B2, “Uttroside B and derivatives thereof as therapeutics for hepatocellular carcinoma” (Rajiv Gandhi Centre for Biotechnology, an Autonomous …, priority 2016, dated 2023).

Assays:
[1] = system: normal immortalized hepatocytes (Chang Liver); assay: MTT assay in normal immortalized hepatocytes; assay type: cell-based; details: at 1250 nM, 72 h
Protocol: FIG. 2A is a graph comparison of IC50 of Uttroside B in a panel of cancer cells of different origin. The cancer cell lines HeLa, A375, HepG2, MDA-MB-231, HL 60, A549 and HCT116 were treated with Uttroside B as indicated, incubated for 72 h and the cell viability was assessed by MTT assay. FIG. 2B is a graph showing dose dependent effect of Uttroside B in the liver cancer cell lines and in normal immortalized hepatocytes. The liver cancer cell lines HepG2, Hep3B, SKHEP-1, Huh-7 and normal hepatocytes (Chang liver), were treated with Uttroside B incubated for 72 h and the cell viability was assessed by MTT assay. FIG. 2C is a graph comparison of IC50 of Uttroside B with sorafenib. HepG2 cells were treated with Uttroside B as indicated, incubated for 72 h, and the cell viability was assessed by MTT assay. […] The clones developed were counted and plotted as a graph. Colony containing more than four cells was counted as one clone. […]
MTT [3-(4,5-dimethylthiazole-2-yl)-2,5-diphenyltetrazolium bromide] assay is a standard colorimetric assay, suitable for analyzing proliferation, viability, and cytotoxicity. […] After overnight incubation, cells were treated with different concentrations of organic extracts (25-250 μg/ml) of S. nigrum and the isolated compound Uttroside B (250-1250 nM) for 72 h and cytotoxicity was measured. […]

Akt in HepG2 cells = assay: Western blot of Akt phosphorylation; assay type: cell-based, human; details: HepG2, no basal activation of Akt
Protocol: FIGS. 4A-4E are images showing Uttroside B inhibits MAPK and mTOR signaling, some of the crucial survival signals in liver cancer. […] HepG2 cells were treated with Uttroside B for different time intervals (0-240 min) and the whole cell lysate was resolved on a 10% gel and immunoblotted against phospho-ERK1/2 and phospho-Akt antibodies. Taxol was used as a positive control. […] HepG2 cells were treated with Uttroside B at different time intervals and the whole cell lysate was resolved on an 8% gel and immunoblotted against phospho-mTOR (2448) and phospho-mTOR (2481) antibodies.
Western blot analysis. Approximately 0.5×10^6 cells were grown on 60 mm culture plates and exposed to drugs as indicated for the desired time. The cells were then scraped out, washed in ice cold 1× PBS and pelleted down at 13000 rpm for 2 min. […]

C[C@H](CC[C@@]1(O)O[C@H]2C[C@H]3[C@@H]4CC[C@H]5C[C@@H](O[C@@H]6O[C@H](CO)[C@H](O[C@@H]7O[C@H](CO)[C@@H](O)[C@H](O[C@@H]8OC[C@@H](O)[C@H](O)[C@H]8O)[C@H]7O[C@@H]7O[C@H](CO)[C@@H](O)[C@H](O)[C@H]7O)[C@H](O)[C@H]6O)CC[C@]5(C)[C@H]4CC[C@]3(C)[C@H]2[C@@H]1C)CO[C@@H]1O[C@H](CO)[C@@H](O)[C@H](O)[C@H]1O [Uttroside B]
viable normal immortalized hepatocytes [1]: 70%
activation of Akt (Akt in HepG2 cells): no significant role in activating Akt pathway
